Converted amounts (≈) assume the structure as drawn. Read-outs that look alike come from different tables or passages of the source.
Columns and labels:
[1] = test system: adjuvant-induced arthritis; test: Adjuvant-induced arthritis model (hindpaw swelling); type: in vivo, male Lewis rats; settings: b.i.d. days 13 to 17, Example 1 dosed at 10 mg/kg
Description: The activities of the compound of example 1 above and comparison compound C1 (see Biological Example A above) were assessed in an adjuvant-induced arthritis model. Adjuvant arthritis was produced in male Lewis rats (Charles River) by a single intradermal injection of 0.75 mg of M. butyricum in light paraffin oil (Freunds complete adjuvant--FCA) into the base of the tail. The "secondary" lesion occurs after a delay of 10 days, and is characterised by inflammation of the […] volumes were measured plethysmographically by water displacement. The test compound was dosed b.i.d. from days 13 to 17. Paw volume on day 20 was measured and compared to that on day 13. The experiment was terminated on day 23.

[2] = test system: HOSP1.P mammary carcinoma cells; test: Lung colonisation assay, rat mammary carcinoma model; type: in vivo
Description: The compound of example 1 above was tested for activity in vivo in a rat mammary carcinoma model. A lung colonisation assay was performed in order to determine whether the compound of example 1 above is effective in inhibiting lung colonisation by circulating HOSP1.P mammary carcinoma cells after oral administration.
HOSP1.P cells (1×10^5 cells/animal) were administered to two groups of 12 rats by injection into the jugular vein. The product of example 1 was administered p.o. to one group at 30 mg/kg at -4, +1, +6, +24 and +72 hours relative to tumor cell inoculation at 0 hours. The second (control) group received only vehicle (p.o.) by the same schedule. Animals were killed after 34 days. Lungs were removed and individual tumors counted after 24 hours fixation in Methacarn. […] (p<0.01, Mann-Whitney, two tailed).

[3] = test system: TNF α release from U937 cells; test: Inhibition of PMA-stimulated TNF α release from U937 cells (ELISA); type: cell-based; settings: Homo sapiens, read-out: IC50 for release of TNF α (average concentration inhibiting release by 50% relative to control)
[4] = Aqueous solubility at ambient temperature; type: physicochemical; settings: in water
Description: The solubilities of compounds of the invention in water at ambient temperature were measured, and compared with comparison compounds C1 and C2 (identified in Biological Example A above).

stromelysin [5] = target: T1, stromelysin (Homo sapiens, UniProt P08254); test: biochemical
T1 sequence (P08254 100-477): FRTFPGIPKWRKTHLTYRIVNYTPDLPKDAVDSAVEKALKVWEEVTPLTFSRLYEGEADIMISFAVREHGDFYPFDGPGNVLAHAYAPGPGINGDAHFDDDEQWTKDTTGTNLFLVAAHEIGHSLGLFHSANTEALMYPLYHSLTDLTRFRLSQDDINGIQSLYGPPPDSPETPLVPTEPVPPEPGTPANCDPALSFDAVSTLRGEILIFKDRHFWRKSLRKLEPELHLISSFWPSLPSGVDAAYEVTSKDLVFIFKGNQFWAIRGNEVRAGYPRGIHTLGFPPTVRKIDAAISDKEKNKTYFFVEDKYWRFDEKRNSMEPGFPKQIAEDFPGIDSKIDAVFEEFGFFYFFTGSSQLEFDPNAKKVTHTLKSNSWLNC
Description: (§1) The casein was acetylated ^14 C casein prepared by the method of Cawston et al (ibid).

[6] = Blood concentration over time after oral gavage in rats, determined as collagenase inhibitory activity of extracts; settings: for AUC (0-6 h) in number of IC50's × hours: oral gavage, male rats, Example 1: average of two results; for AUC(0-t) at 6 h / Tmax: rat, po
Description: (§2) The concentration over time of compounds of the invention in the blood of laboratory animals following administration of the test compounds was measured.
(§3) Test compounds were administered by gavage to 6 male rats (300 g) per treatment group. Blood samples were removed by tail venepuncture at 0.5, 1.0, 2.0, 6.0 and 24 hours post administration. 0.4 ml of blood was placed into 4.5 ml tubes containing 0.1 ml acid citrate dextrose (ACD) as anti-coagulant. For extraction, 3 ml methanol was added and the precipitated blood pelletted by centrifugation (30 min at 3000 rpm). A 2 ml aliquot of supernatant was removed and concentrated by lyophilisation. The extract was redissolved in 200 μl DMSO and a 10 μl aliquot assayed for collagenase inhibitory activity.

collagenase [7] = target: T2, collagenase (Homo sapiens, UniProt P03956); test: biochemical
T2 sequence (P03956 100-469): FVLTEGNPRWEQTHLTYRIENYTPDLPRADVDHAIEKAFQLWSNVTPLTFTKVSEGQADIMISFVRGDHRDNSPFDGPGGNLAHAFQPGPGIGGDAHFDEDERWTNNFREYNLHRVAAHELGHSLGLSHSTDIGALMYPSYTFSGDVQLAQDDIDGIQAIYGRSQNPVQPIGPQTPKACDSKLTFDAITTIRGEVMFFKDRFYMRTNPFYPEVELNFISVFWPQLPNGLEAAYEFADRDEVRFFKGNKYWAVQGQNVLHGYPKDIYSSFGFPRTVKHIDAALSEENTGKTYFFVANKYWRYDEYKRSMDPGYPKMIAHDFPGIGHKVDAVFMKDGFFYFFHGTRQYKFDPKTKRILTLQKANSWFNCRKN
Description: (§4) The samples were centrifuged to sediment undigested collagen, and an aliquot of the radioactive supernatant removed for assay on a scintillation counter as a measure of hydrolysis.

[8] = rat, in vivo, po, 360 min
Description: as §2, §3

in vivo = settings: rat, po
Description: as §2, §3

collagenase [9] = target: T2, collagenase; settings: read-out: Collagenase IC50; 37°, 16 hours, pH 7.5
Description: as §4

stromelysin [10] = target: T1, stromelysin; settings: read-out: Stromelysin IC50; 37°, 16 hours, pH 7.5
Description: as §1

[11] = U-937, U937 cells, PMA 50 nM, 18 hours, 37° C.

CNC(=O)[C@H](CC1CCCCC1)NC(=O)[C@H](CC(C)C)[C@H](O)C(=O)NO [Example 1, N^2-[3S-Hydroxy-4-(N-hydroxyamino)-2R-isobutylsuccinyl]-L-cyclohexyl alanine-N^1 methylamide]
reduction in swelling relative to control (paw volume day 20 vs day 13) [1]: statistically significant (p<0.01) reduction in swelling relative to control | Lung Colony Number, Mean ([2]; 30 mg/kg p.o. at -4, +1, +6, +24, +72 hours, 34 days, control mean 70.50): 38.91 | Lung Colony Number, Median ([2]; 30 mg/kg p.o. at -4, +1, +6, +24, +72 hours, 34 days, control median 71.50, p <0.01): 38.50 | extrapulmonary tumors ([2]; 30 mg/kg p.o., 34 days): No extrapulmonary tumors were found | inhibition of lung colonisation relative to control group ([2]; 30 mg/kg p.o., p<0.01, Mann-Whitney, two tailed): significant inhibition of lung colonisation relative to the control group | IC50 [3, 11]: < 50000 nM | solubility [4]: 100 µg/mL (≈ 269 µM) | IC50 (stromelysin [5]): 60 nM | AUC (0-6 h) in number of IC50's × hours [6]: 46.2 n IC50 's × h | AUC(0-t) at 6 h [6]: 143 ng·h/mL | Tmax [6]: 30 min

CNC(=O)[C@H](Cc1ccc(OCC(=O)O)cc1)NC(=O)[C@H](CC(C)C)[C@H](O)C(=O)NO [Example 2, N^2-[3S-Hydroxy-4-(N-hydroxyamino)-2R-isobutylsuccinyl]-L-(4-oxymethylcarboxy) phenylalanine-N^1-methylamide]
IC50 [3, 11]: < 50000 nM | solubility [4]: 13100 µg/mL (≈ 29900 µM) | IC50 (collagenase [7]): 30 nM | IC50 (stromelysin [5]): 200 nM

CNC(=O)[C@@H](NC(=O)[C@H](CC(C)C)[C@H](O)C(=O)NO)c1ccccc1 [Example 3, N^2-[3S-Hydroxy-4-(N-hydroxyamino)-2R-isobutylsuccinyl]-L-phenylglycine-N^1-methylamide]
solubility [4]: 2340 µg/mL (≈ 6660 µM) | IC50 (collagenase [7]): 100 nM

CNC(=O)[C@H](Cc1ccc(-c2ccccc2)cc1)NC(=O)[C@H](CC(C)C)[C@H](O)C(=O)NO [Example 4, N^2-[3S-Hydroxy-4-(N-hydroxyamino)-2R-isobutylsuccinyl]-L-(4-phenyl)-phenylalanine-N^1-methylamide]
solubility [4]: 110 µg/mL (≈ 249 µM)

CC(C)C[C@@H](C(=O)NC1CCCCCCCCCCNC1=O)[C@H](O)C(=O)NO (stereo partly drawn) [Example 5, N^3-[3S-Hydroxy-4-(N-hydroxyamino)-2R-isobutylsuccinyl]amino-1-azacyclotridecan-2-one]
IC50 [3, 11]: < 50000 nM | solubility [4]: 140 µg/mL (≈ 350 µM) | IC50 (collagenase [7]): 20 nM

CNC(=O)[C@H](Cn1cccn1)NC(=O)[C@H](CC(C)C)[C@H](O)C(=O)NO [Example 6, N^2-[3S-Hydroxy-4-(N-hydroxyamino)-2R-isobutylsuccinyl]-L-3-(1-pyrazolyl)alanine-N^1-methylamide]
solubility [4]: 330 µg/mL (≈ 929 µM) | IC50 (collagenase [7]): 30 nM | IC50 (stromelysin [5]): 3000 nM

CNC(=O)[C@H](CCC(=O)NO)NC(=O)[C@H](CC(C)C)[C@H](O)C(=O)NO [Example 7, N^2-[3S-Hydroxy-4-(N-hydroxyamino)-2R-isobutylsuccinyl]-L-4-(N-hydroxyamino)glutamic acid-N^1-methylamide]
solubility [4]: 180 µg/mL (≈ 497 µM) | IC50 (collagenase [7]): 150 nM | IC50 (stromelysin [5]): 500 nM

CNC(=O)[C@H](Cc1cccs1)NC(=O)[C@H](CC(C)C)[C@H](O)C(=O)NO [Example 8, N^2-[3S-Hydroxy-4-(N-hydroxyamino)-2R-isobutylsuccinyl]-L-3-(2-thienyl)alanine-N^1-methylamide]
IC50 (collagenase [7]): 10 nM | IC50 (stromelysin [5]): 100 nM

CC(C)C[C@@H](C(=O)N[C@@H](CC1CCCCC1)C(=O)NCCCN1CCCC1=O)[C@H](O)C(=O)NO [Example 9, N^2-[3S-Hydroxy-4-(N-hydroxyamino)-2R-isobutylsuccinyl]-L-cyclohexyl alanine-N^1-(3-(2-pyrrolidone)propyl)amide]
solubility [4]: 1800 µg/mL (≈ 3730 µM) | IC50 (collagenase [7]): 30 nM

CNC(=O)[C@@H](NC(=O)[C@H](CC(C)C)[C@H](O)C(=O)NO)C(C)(C)C [Example 10, N^2-[3S-Hydroxy-4-(N-hydroxyamino)-2R-isobutylsuccinyl]-L-tert-leucine-N^1-methylamide]
IC50 ([3]; U-937, 18 h): < 50000 nM | solubility [4]: 1400 µg/mL (≈ 4220 µM) | AUC (0-6 h) in number of IC50's × hours [8]: 190 n IC50 's × h | AUC(0-t) at 6 h (in vivo): 343 ng·h/mL | Tmax (in vivo): 30 min

CCOC(=O)[C@H](C)NC(=O)[C@H](CC(C)C)NC(=O)[C@@H](CC(=O)NO)CC(C)C [Example C1, reference compound]
reduction in swelling relative to control (paw volume day 20 vs day 13) [1]: no effect | solubility [4]: 300 µg/mL (≈ 747 µM) | IC50 (collagenase [7]): 15 nM | IC50 (stromelysin [5]): 300 nM | AUC (0-6 h) in number of IC50's × hours [6]: 7.4 n IC50 's × h | AUC(0-t) at 6 h [6]: 91.7 ng·h/mL | Tmax [6]: 30 min

CCOC(=O)CNC(=O)[C@H](CC(C)C)NC(=O)[C@H](CC(C)C)[C@H](CCCCN1C(=O)c2ccccc2C1=O)C(=O)NO [Example C2]
solubility [4]: < 100 µg/mL | IC50 (collagenase [9]): 7 nM | IC50 (stromelysin [10]): 70 nM | AUC (0-6 h) in number of IC50's × hours [6]: 2.12 n IC50 's × h | AUC(0-t) at 6 h [6]: 5.3 ng·h/mL | Tmax [6]: 60 min

Source: US5700838A, “Hydroxamic acid derivatives as metalloproteinase inhibitors” (British Biotech Pharmaceuticals Limited, priority 1992, dated 1997)
